Measurements published in article PMC5578373, “Inhibitory Kappa B Kinase α (IKKα) Inhibitors That Recapitulate Their Selectivity in Cells against Isoform-Related Biomarkers” (Journal of Medicinal Chemistry, 2017).
“Also recorded” adds a separate entry of the source. Read-outs that look alike come from different tables or passages of the source.

Key:
[1] = system: IKKβ-dependent IκBα degradation in U2OS cells; experiment: TNFα-induced IκBα degradation in U2OS cells, Western blot; assay type: cell-based, human; conditions: highest concentration 100 μM, TNF-α (10 ng/mL) 30 min
Protocol: (§1) Two IKKβ-dependent readouts were selected to assess selectivity over IKKβ. First, TNFα stimulates IκBα degradation through activation of IKKβ and if IKKβ is inhibited, then a band corresponding to the IκBα protein should be evident by Western analysis. Second, IKKβ phosphorylates p65 on Ser536, which can also be assessed by Western blot analysis. Only at the highest concentration (100 μM) of 48 was IκBα degradation and p65 (Ser536) phosphorylation inhibited (Figure 9b). Even at this high concentration, these effects were not apparent following pretreatment with 47 (Figure 10b).
(§2) Figure 9 Effect of compound 48 on (a) FCS-stimulated noncanonical and (b) TNF-α-induced canonical NF-kB activation in U2OS cells. […] Whole cell lysate were prepared, separated by SDS-PAGE, and assessed for (a) inhibition of p100 phosphorylation (Ser866/870) and (b) IkB-α and p-p65 (Ser536) status. […]
(§3) Figure 10 Effect of compound 47 on (a) FCS-stimulated noncanonical and (b) TNF-α-induced canonical NF-kB activation in U2OS cells. […] Whole cell lysate were prepared, separated by SDS-PAGE, and assessed for (a) inhibition of p100 phosphorylation (Ser866/870) and (b) IkB-α and p-p65 (Ser536) status. […]
(§4) Whole cell lysates were prepared from U2OS and status of IκBα, p65, p-p65 (Ser536), and p-p100 (Ser 866/870) assessed by Western blotting as described in Mackenzie et al. (2007).[46]

[2] = system: IKKβ-dependent p65 (Ser536) phosphorylation in U2OS cells; experiment: TNFα-induced p65 (Ser536) phosphorylation in U2OS cells, Western blot; assay type: cell-based, human; conditions: highest concentration 100 μM, TNF-α (10 ng/mL) 30 min
Protocol: as §1, §2, §3, §4

[3] = system: IKKα-driven p100 phosphorylation in U2OS cells; experiment: FCS-stimulated p100 phosphorylation (Ser866/870) in U2OS cells, Western blot; assay type: cell-based, human; conditions: 1 h pretreatment, FCS (10%) for 4 h, blots quantified, read-out: IC50 for inhibition of p100 phosphorylation
Protocol: as §1
Figure 9 Effect of compound 48 on (a) FCS-stimulated noncanonical and (b) TNF-α-induced canonical NF-kB activation in U2OS cells. Cells were pretreated with 48 1 h prior to stimulation with FCS (10%) for 4 h or TNF-α (10 ng/mL) for 30 min. Whole cell lysate were prepared, separated by SDS-PAGE, and assessed for (a) inhibition of p100 phosphorylation (Ser866/870) and (b) IkB-α and p-p65 (Ser536) status. […] The results are representative of three independent experiments.
Figure 10 Effect of compound 47 on (a) FCS-stimulated noncanonical and (b) TNF-α-induced canonical NF-kB activation in U2OS cells. Cells were pretreated with 47 1 h prior to stimulation with FCS (10%) for 4 h or TNF-α (10 ng/mL) for 30 min. Whole cell lysate were prepared, separated by SDS-PAGE, and assessed for (a) inhibition of p100 phosphorylation (Ser866/870) and (b) IkB-α and p-p65 (Ser536) status. […] The results are representative of three independent experiments.
(§5) U2OS cells were cultured with McCoy’s 5A modified medium and MEF were cultured with DEME medium containing 10% (v/v) FCS and medium was changed every 2 d thereafter until cells became confluent. Cells were incubated at 37 °C in humidified air with 5% CO2 and rendered quiescent by serum deprivation for 24 h prior to stimulation in serum-free medium.
as §4

[4] = system: IKKα-regulated NF-κB transcriptional activation in IKKβ−/− MEFs; experiment: IL-1β-stimulated NF-κB-luciferase transcriptional activity in IKKβ knockout MEFs; assay type: cell-based, mouse
Protocol: To provide further evidence for cellular activity, mouse embryonic fibroblasts lacking the IKKβ kinase subunit were utilized to investigate the potency of both compounds against agonist-stimulated IKKα-regulated NF-κB transcriptional activation. Cells were infected with an adenovirus encoding an NF-κB-luciferase promoter gene. NF-κB transcriptional activity driven by IKKα was stimulated specifically using IL-1β,[41] and the ability of the compounds to inhibit this response was assessed. […] As IKKα plays a lesser role in the canonical NF-κB cascade,[42] particularly the rapid and transient stimulated degradation of IκBα, selective IKKα inhibitors should not affect TNF-α induced IκBα degradation and p65 phosphorylation.
as §5
An adenoviral vector encoding NFκB-luciferase (Adv.NFκB-Luc) was purchased from Vector Biolabs (University of Pennsylvania, Philadelphia, US). Large-scale production of high titer recombinant adenovirus was performed by routine methods.[47] IKKβ knockout mouse embryonic fibroblasts (MEFs; kindly provided by Prof. I. Verma, UCSD, USA) were counted when approximately 60–70% confluent in T75 cm^2 flasks and infected with adenovirus up to 300 pfu/cell^–1 for 24 h in 10% DMEM. Cells were then lifted from the flasks and plated into 96-well clear bottom, black luciferase plates and allowed to settle for 24 h before serum starved overnight. Cells were then stimulated with the appropriate agonists for the indicated times and reactions terminated by addition of lysis buffer containing 0.2 mM luciferin substrate. Relative light units (RLU) were measured using a Trilux microbeta counter (luminometer).

Structure (SMILES): N#Cc1c[nH]c2nc(N)nc(-c3ccc(CO)cc3)c12 [Compound 47, 2-Amino-4-(4-hydroxymethyl)phenyl-7H-pyrrolo[2,3-d]pyrimidine-5-carbonitrile]
- inhibition of TNFα-stimulated IκBα degradation [1]: not apparent; also recorded: did not affect
- inhibition of TNFα-stimulated p65 (Ser536) phosphorylation [2]: not apparent; also recorded: did not affect
- IC50 [3]: 19.1 µM
- IC50 ([3]; Homo sapiens, U2OS): 13.9 µM
- % stimulation ([4]; 100 μM compound, 1 h pretreatment, IL-1β (10 ng/mL) 6 h, IL-1β + DMSO = 100, mean ± SEM): –40.9 ± 4.6 %
- inhibition of NF-κB transcriptional activity ([4]; maximal concentrations of 50–100 μM): approximately 81%
- % stim ([4]; maximal concentrations of 50–100 μM, Il-1β+DMSO = 100%): 18.79 ± 7.2%
